Here are results for two compounds from publication PMC3563359 (Nature communications, 2012).

One assay concerns the target SK2-a channels (Rattus norvegicus, UniProt P0DP29+P70604). In words: Potentiation of WT SK2-a channel currents, inside-out patch, TsA201 cells. The format is cell-based.
For assay [1] the following is noted: cited from earlier work.
A further assay has as its system EDHF-mediated responses. The conditions noted are these: cited from earlier work.
[2] abbreviates: ratio of EC50s, SK2-a, 200 nM Ca2+.

Sequence of SK2-a channels (P70604 whole entry, one chain of several): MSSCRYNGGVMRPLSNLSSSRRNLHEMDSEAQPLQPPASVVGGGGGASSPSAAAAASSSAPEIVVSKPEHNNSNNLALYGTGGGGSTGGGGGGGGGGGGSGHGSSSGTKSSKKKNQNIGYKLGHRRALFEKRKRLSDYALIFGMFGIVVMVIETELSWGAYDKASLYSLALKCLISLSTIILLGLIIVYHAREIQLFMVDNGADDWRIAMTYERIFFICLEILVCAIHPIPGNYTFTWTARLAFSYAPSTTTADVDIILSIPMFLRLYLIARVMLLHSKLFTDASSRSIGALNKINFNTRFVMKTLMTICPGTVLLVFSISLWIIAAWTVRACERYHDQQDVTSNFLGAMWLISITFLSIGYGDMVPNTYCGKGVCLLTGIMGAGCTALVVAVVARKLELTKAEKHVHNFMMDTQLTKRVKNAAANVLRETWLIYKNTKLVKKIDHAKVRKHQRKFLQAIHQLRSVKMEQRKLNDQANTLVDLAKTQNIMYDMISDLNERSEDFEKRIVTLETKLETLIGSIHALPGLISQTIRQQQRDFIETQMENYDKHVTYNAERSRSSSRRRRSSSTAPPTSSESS

For `NC(=O)Nc1ccccc1` [PHU, phenylurea], the EC50 on SK2-a channels was determined as 1610 ± 200 µM. Also, the “Hill coefficient of potentiation of SK2-a channel activity” value on SK2-a channels (200 nM Ca2+, inside-out patch) is 1.81 ± 0.22. At SK2-a channels (setting [2]), the “fold less potent compared to NS309” value is given as “more than 3600 fold” and the “fold less potent than DCEBIO” value is reported as roughly 75 fold.
Turning to `Nc1nc2c(ccc3ccccc32)s1` [SKA-31, Naphtho[1,2-d]thiazol-2-ylamine], the “effect on blood pressure” value in assay [1] was “lowers the blood pressure”. Moreover, the “effect on EDHF-mediated responses” value in the assay on EDHF-mediated responses is listed as “enhances”.

The term EC50 denotes the concentration that produces a half-maximal response.
